Experimental data published in ChEMBL document CHEMBL3616370, “Pandalisines A and B, novel indolizidine alkaloids from the leaves of Pandanus utilis” (Bioorg Med Chem Lett, 2015).
Active and inactive are the calls of the source.

Tests used:
Assay type in all cases: functional, cell-based
[1] = tested on: A549; assay: Cytotoxicity against human A549 cells at 60 ug/ml after 72 hrs by MTT assay
[2] = tested on: HepG2; assay: Cytotoxicity against human HepG2 cells at 60 ug/ml after 72 hrs by MTT assay
[3] = tested on: MDA-MB-231; assay: Cytotoxicity against human MDA-MB-231 cells at 60 ug/ml after 72 hrs by MTT assay

Measured: Activity

CC1=C/C(=C2/CCCN3CCC[C@H]23)OC1=O
inactive: [1] | [2] | [3]

CC1=C/C(=C2\CCCN3CCC[C@H]23)OC1=O
inactive: [1] | [2] | [3]
